A short description of data set [1]: Carnosine permeability across Caco-2 cells. Type of data set: in vitro ADME, Human. Conditions: human; Caco-2 passage 26; 20 μM in HBSS; apical to basolateral. As to the method:
(§1) The study was performed using Caco-2 cells at a passage number of 26 seeded on a 24-well transwell plates. The permeability of carnosine was studied at a concentration of 20 μM. Compounds were solubilized in HBSS and added to apical compartment of transwells and blank buffer on basolateral side.
In general terms: Passage across Caco-2 layers is used to estimate intestinal permeability.

Data set [2] deals with Caco-2 cells. Nature of the data set: Carnosine permeability across Caco-2 cells. Type of data set: in vitro ADME, Human. Conditions: Caco-2 passage 26, A-->B. As to the method:
as §1

Data set [3] in a line: L-carnosine stability in simulated gastric and intestinal fluids. Conditions: for % Remaining: 10 μM, 37.0° C. The format is physicochemical. As to the method:
Three fluids were simulated: fasted (pH 1.2) and fed (pH 3.5) simulated gastric fluid (SGF) and simulated intestinal fluid (SIF) (pH 6.8). […] A zero time point was taken after adding the appropriate stock to each fluid (N=2) and mixed by pipette. Time points were then taken at 5, 10, 15, 30, 60, 90, and 120 minutes. These were quenched with ACN and kept on ice. The samples were then added to 50% ACN in […] ammonium acetate buffer (pH=3.6) with Verapamil for Internal Standard (IS) and filtered before analysis.
Two concentrations of working stocks were made at 5000 ng/ml and 200 ng/ml. In Table 12, diluent is 50% ACN in […] ammonium acetate buffer (pH=3.6). The total analytical volume was 200 μL for all standards and samples. Six sets of QCs were used along with the samples and seven calibration standards. All were analyzed by UPLC-MS/MS on the same day as preparation.

Data set [4] is described as follows: CoQ10 Caco-2 permeability. The format is in vitro ADME, Human. Conditions: human; Caco-2 passage 38; formulation: supernatant of 1 mg/mL in HBSS; pure compound 10 μM; apical to basolateral. As to the method: (§2) The study was performed using Caco-2 cells at a passage number of 38 seeded on a 24-well transwell plate. […] Instead, the formulation was added to the HBSS buffer at a concentration of 1 mg/mL, vortexed, and centrifuged for 15 min at 10,000 G-force. The supernatant was used for permeability assessment. For pure compound, the permeability study was performed at 10 μM final concentration. Compound solutions were added to the apical compartments of the transwell and blank buffer on the basolateral side. FIG. 9 provides a visual summary of this process.

The test system of data set [5] is Caco-2 cells. Description: CoQ10 Caco-2 permeability. Type of data set: in vitro ADME, Human. Conditions: Caco-2 passage 38, A --> B. As to the method:
as §2

The nature of data set [6]: Berberine chloride Caco-2 permeability. Type of data set: in vitro ADME, Human. Conditions: human; Caco-2 passage 38; formulation: supernatant of 1 mg/mL in HBSS; pure compound 10 μM; apical to basolateral. As for the experimental part:
as §2

Data set [7] relates to Caco-2 cells. Nature of the data set: Berberine chloride Caco-2 permeability. The format is in vitro ADME, Human. Conditions: Caco-2 passage 38, A --> B. As to the method:
as §2

Data set [8] is described as follows: Quercetin Caco-2 permeability. The format is in vitro ADME, Human. Conditions: human; Caco-2 passage 28; 20 μM in HBSS; apical to basolateral. As to the method:
(§3) The study was performed using Caco-2 cells at a passage number of 28 seeded on a 96-well Transwell plates. Permeability was studied at a concentration of 20 μM. Compounds were solubilized in HBSS and added to apical compartment of the Transwell plate and blank buffer on basolateral side. FIG. 17 provides a visual summary of this process.

Data set [9] deals with Caco-2 cells. Nature of the data set: Quercetin Caco-2 permeability. The format is in vitro ADME, Human. Conditions: Caco-2 passage 28, A-->B. As to the method:
as §3

Data set [10] can be described thus: Randomized, double-blind, placebo-controlled crossover trial: plasma and leukocyte vitamin C concentration after single dose. The format is in vivo, human. Conditions: single 500 mg dose; p<0.001. As for the experimental part: Venous blood samples were collected 0, 0.5-, 1-, 1.5-, 2-, 3-, 4-, 6-, 8-, 12-, and 24-hours after ingestion and were analyzed for plasma and leukocyte vitamin C concentration.

What is called Papp A→B is how fast a substance crosses the layer from the apical side. Lower therefore signals poor permeation. In the case of `NCCC(=O)N[C@@H](Cc1cnc[nH]1)C(=O)O` [Carnosine, L-carnosine], the Papp A→B at 20 μM in [1] was 3.05 ± 0.62 ×10⁻⁶ cm/s. For the same molecule, the “Permeability Class (High/Low)” value in the data set with Caco-2 cells [2] is reported as “Low”. The “% Remaining” value in data set [3] (Fasted SGF (pH 1.2), 0 minutes) is listed as 100%; in data set [3] (Fasted SGF (pH 1.2), 5 minutes) it was 100.3%; in [3] (Fasted SGF (pH 1.2), 10 minutes), 95.5%; in data set [3] (Fasted SGF (pH 1.2), 15 minutes), 97.5%; in [3] (Fasted SGF (pH 1.2), 30 minutes) it was 94%; in data set [3] (Fasted SGF (pH 1.2), 60 minutes), 99.4%. Further, the “% Remaining” value was 101.5% in data set [3] (Fasted SGF (pH 1.2), 90 minutes); 96.5% in data set [3] (Fasted SGF (pH 1.2), 120 minutes); 100% in [3] (Fed SGF (pH 3.5), 0 minutes); 103.9% in [3] (Fed SGF (pH 3.5), 5 minutes); 97.6% in data set [3] (Fed SGF (pH 3.5), 10 minutes); 91.9% in [3] (Fed SGF (pH 3.5), 15 minutes). The “% Remaining” value in data set [3] (Fed SGF (pH 3.5), 30 minutes) is recorded as 96.5%; in data set [3] (Fed SGF (pH 3.5), 60 minutes), 102.2%; in [3] (Fed SGF (pH 3.5), 90 minutes) it was 97.4%; in [3] (Fed SGF (pH 3.5), 120 minutes), 97.4%; in data set [3] (SIF (pH 6.8), 0 minutes), 100%; in [3] (SIF (pH 6.8), 5 minutes), 96.9%. Besides, the “% Remaining” value was 91% in [3] (SIF (pH 6.8), 10 minutes); 89% in data set [3] (SIF (pH 6.8), 15 minutes); 95.8% in data set [3] (SIF (pH 6.8), 30 minutes); 103% in [3] (SIF (pH 6.8), 60 minutes); 100.1% in data set [3] (SIF (pH 6.8), 90 minutes); 99.1% in data set [3] (SIF (pH 6.8), 120 minutes). The “stability in SGF and SIF” value in data set [3] (over 120 minutes) is on record as “stable”.
For `COC1=C(OC)C(=O)C(C/C=C(\C)CC/C=C(\C)CC/C=C(\C)CC/C=C(\C)CC/C=C(\C)CC/C=C(\C)CC/C=C(\C)CC/C=C(\C)CC/C=C(\C)CCC=C(C)C)=C(C)C1=O` [CoQ10 Reference Standard, CoQ10], the Papp A→B at 10 μM in data set [4] was determined as 0.2 ± 0.13 ×10⁻⁶ cm/s. In addition, the “Permeability Class (High/Low)” value with Caco-2 cells [5] is recorded as “Low”.
The molecule `COc1ccc2cc3[n+](cc2c1OC)CCc1cc2c(cc1-3)OCO2` [Sigma Aldrich Berberine Chloride, Berberine Chloride] showed a Papp A→B at 10 μM in [6] of 2.17 ± 0.17 ×10⁻⁶ cm/s. Moreover, the “Permeability Class (High/Low)” value in the data set with Caco-2 cells [7] is given as “Low”.
In the case of `O=c1c(O)c(-c2ccc(O)c(O)c2)oc2cc(O)cc(O)c12` [USP Quercetin, quercetin], the Papp A→B at 20 μM in data set [8] was 8.83 ± 0.17 ×10⁻⁶ cm/s. Moreover, the “Permeability Class (High/Low)” value in the data set on Caco-2 cells [9] is “High”.
Regarding `O=C1O[C@H]([C@@H](O)CO)C(O)=C1O` [VIT C, L-Ascorbic acid], the “Cmax and AUC0-24 in plasma and in leukocytes compared to placebo” value in data set [10] is “significantly greater”.

Source of the values: patent publication US12673026B2, “Liposomal compositions and methods of use thereof for improved stability, bioavailability and sustained release” (SpecNova LLC, priority 2023, dated 2026).
